# Test results as given in patent US20240181111A1, “SYSTEMS AND METHODS FOR AIR SANITIZATION USING FORMULAS CONTAINING AN ORGANIC ACID” (The Clorox Company, priority 2022, published 2024).
# Several values for one entry are separate records, joined by “and”; a condition that tells them apart may be missing. Equal values may be shown once. Read-outs that look alike come from different tables or passages of the source.
# How the values were obtained:
# [1] = cited from earlier work
# [2] = cited from earlier work; remark: listed apart in the source
# [3] = Candidate screening for antimicrobial synergy with lactic acid
# Method: In addition to tested organic acids, a number of glycols, alcohols, diols and other candidates were also screened, for pairing with the organic acid. Viable candidates may also have: 1) a vapor pressure characteristics as noted above; 2) be soluble in water; and/or 3) have an ECHA Inhalation Threshold for the General Population of greater than 10 mg/m^3.
# As such, while glycols may optionally be present, in an embodiment, the present formulations may be void, or substantially void of such glycol components (particularly propylene glycol and glycols including an ether group). The same may be said for various other candidate materials noted in Table 2.
# [4] = cited from earlier work; remark: listed apart in the source
# [5] = Acid dissociation of lactic acid; type: physicochemical; details: at a pH of 2.2
# Excerpt: In another aspect, the pH of the antimicrobial formulation is kept low. A low pH can be important for lactic acid or other acids to achieve air sanitization efficacy. […].
# [6] = Table 2 candidates for pairing with the organic acid
# [7] = Table 1 organic acids, standard conditions (e.g., 20° C. and 1 atmosphere)
# [8] = organic acids, long term inhalation
smiles,measurement,setting,value
"CCC(O)CO (stereo not shown) [1,2-butanediol]",Vapor Pressure,[1]; [6],10 Pa
same,ECHA Inhalation Threshold for General Population,[2]; Table 2 candidates,No hazard identified
"CCCCC(O)CO (stereo not shown) [1,2-hexanediol (HDO), 1,2-hexanediol]",antimicrobial synergy with lactic acid,[3],synergy with lactic acid
"CC(O)CCO (stereo not shown) [1,3-butanediol]",Vapor Pressure,[1]; [6],26 Pa
CCCCCCCCCCCCO [1-dodecanol],ECHA Inhalation Threshold for General Population,[2]; Table 2 candidates,77 mg/m^3
O=C(O)CCO [3-hydroxypropionic acid],Solubility in water (g of compound in 100 g of water at ~20° C.),[4],Very soluble^1
CC(=O)O [acetic acid],Vapor Pressure,[1]; [7],2080^3 Pa
same,ECHA local effects DNEL,[2]; local effects,25 mg/m^3)^1
O=C(O)CCCCC(=O)O [adipic acid],Vapor Pressure,[1]; [7],9.70^1 Pa
O=C(O)c1ccccc1 [benzoic acid],Vapor Pressure,[1]; [7],0.11^1 Pa
same,ECHA Inhalation Threshold for General Population,[2]; [8],1.5^3 mg/m^3
O=C(O)CO [glycolic acid],ECHA Inhalation Threshold for General Population,[2]; [8],2.6 mg/m^3 and 2.6^3 mg/m^3
CCCCCCC(=O)O [heptanoic acid],Solubility in water (g of compound in 100 g of water at ~20° C.),[4],0.2^2 g of compound in 100 g of water
CCCCCC(=O)O [hexanoic acid],Vapor Pressure,[1]; [7],5.80^1 Pa
same,ECHA Inhalation Threshold for General Population,[2]; [8],4.35^3 mg/m^3
CC(O)C(=O)O (stereo not shown) [lactic acid],fraction of lactic acid in the acidic form,[5],at least 95%
O=C(O)CC(=O)O [malonic acid],ECHA Inhalation Threshold for General Population,[2]; [8],1.04^3 mg/m^3
CC(=O)C(=O)O [pyruvic acid],Solubility in water (g of compound in 100 g of water at ~20° C.),[4],100^1 g of compound in 100 g of water
same,solubility,[4]; standard conditions (room temperature and 1 atm),about 100 g/100 g water
